Assay results: US10669284B2, “Fused thiazolopyrimidine derivatives as MNKS inhibitors” (LIFEARC, priority 2015, dated 2020)
Like-named read-outs stand apart in the source and are kept apart here.

Assays:
Full-length human MNK1 = target: T1, Full-length human MNK1 (Homo sapiens, UniProt Q9BUB5, T385D); test: MNK1 biochemical IC50 assay (Caliper Mobility Shift Assay)
T1 construct: GST (N); purchased Carna Biosciences 02-145; host or cells: baculovirus expression system
From the text: (§1) The phosphorylated peptide product and unphosphorylated peptide substrate were detected using a Caliper Mobility Shift Assay using the Caliper LabChip EZ Reader II.
(§2) The Caliper Mobility Shift Assay technology is based on the utilisation of a microfluidic chip to measure the conversion of a fluorescent non-phosphorylated peptide substrate to phosphorylated product by electrophoresis separation of substrate and product and detection via Laser-induced fluorescence. The LabChip EZ Reader software calculates the relative heights of substrate and product peaks and reports the peak ratio (Product peak(P) divided by the sum of Product peak(P) and Substrate peak(S)). The percent-conversion is calculated as 100×[(P/(P+S)]. All assays were set up to run in the linear phase with a maximum of 10 percent substrate conversion.
(§3) These were N-terminal GST fusion proteins expressed in baculovirus expression system and purified by glutathione sepharose affinity chromatography. […] All other assay reagents were sourced from Sigma.
Compounds were serially diluted in DMSO to generate a 10-point half log dilution curve with a final top concentration of 100 uM in the assay. […] Compounds were pre-incubated with enzyme and peptide in reaction buffer for 30 mins prior to addition of ATP to initiate the reaction. Final assay concentrations were 3 nM MNK1, 2 uM peptide substrate, 50 uM ATP, 50 mM Hepes pH 7.0, 0.01% BSA, 10 mM MgCl2, 1 mM dithiothrietol.
(§4) The assay incubation times were adjusted depending on the concentration of ATP used. Assays were performed at low (50 uM) and high (1 mM) ATP. The low ATP values were selected to run at Km conditions for the standard assay to allow relative potencies to be compared across other kinases. The high ATP concentration was selected as representative of cellular ATP concentrations, and for an indication of ATP competition, where a significant shift (greater than half log) in apparent potency would be expected compared to Km conditions. All IC50 values reported are the average of at least two independent experiments.

Full-length human MNK2 = target: T2, Full-length human MNK2 (Homo sapiens, UniProt Q9HBH9, T379D); test: MNK2 biochemical IC50 assay (Caliper Mobility Shift Assay)
T2 construct: GST (N); purchased Carna Biosciences 02-146; host or cells: baculovirus expression system
From the text: as §1, §2, §3, §4
Reactions were performed as above using 10 nM MNK2 in the assay. Standard assays contained 50 uM ATP and high concentration ATP assays contained 1 mM ATP. […] All other conditions were the same.

[1] = test system: phosphorylation of eIF4E at ser209 in MV4.11 cell line; test: MNK cellular activity phospho-eIF4E detection assay (Alphascreen Surefire); type: cell-based; details: Homo sapiens; MV4.11 cell line, phospho-eIF4E (ser209) Alphascreen Surefire; read-out: P(IC50) elF4E (converted)
Experimental: The assay detection is based on the formation of sandwich antibody complexes coupled to donor and acceptor beads. Excitation at 680 nm causes the transfer of a singlet oxygen species between donor and acceptor beads when they are in close proximity by binding to the analyte ([…]), which results in the emission of light at 520-620 nm.
Cells were then lysed and the Alphascreen Surefire protocol followed according to manufacturer's recommendations. 8 ul Acceptor beads (1:50 dilution in kit activation buffer) was added to lysate, shaken 150 rpm for 2 min and incubated for 1.5 hr at room temperature. 3 ul Donor beads (1:20 dilution in kit dilution buffer) were then added, shaken 150 rpm for 2 min and incubated for a further 1.5 hr at room temperature after which the plates were read on Pherastar FS using Alphascreen optic module.
Data were normalised relative to untreated DMSO only controls and curves repeated in duplicate within experiments. Data reported are averages of at least 2 independent experiments.

[2] = read-out: P(IC50) MNK1 (converted)
[3] = read-out: P(IC50) MNK2 (converted)

T1 sequence (Q9BUB5 1-424 isoform Q9BUB5-2 T344D): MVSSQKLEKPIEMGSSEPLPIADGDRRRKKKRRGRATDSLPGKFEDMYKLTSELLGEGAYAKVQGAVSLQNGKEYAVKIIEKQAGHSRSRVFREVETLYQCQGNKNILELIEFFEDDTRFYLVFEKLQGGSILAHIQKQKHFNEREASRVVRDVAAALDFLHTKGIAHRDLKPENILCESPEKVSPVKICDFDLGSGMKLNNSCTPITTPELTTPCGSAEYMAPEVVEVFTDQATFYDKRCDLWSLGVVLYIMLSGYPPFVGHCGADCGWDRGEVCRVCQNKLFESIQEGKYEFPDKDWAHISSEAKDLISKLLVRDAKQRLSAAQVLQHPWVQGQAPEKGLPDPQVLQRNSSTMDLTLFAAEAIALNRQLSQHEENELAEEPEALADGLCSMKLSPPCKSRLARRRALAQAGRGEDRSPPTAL
T2 sequence (Q9HBH9 whole entry T379D): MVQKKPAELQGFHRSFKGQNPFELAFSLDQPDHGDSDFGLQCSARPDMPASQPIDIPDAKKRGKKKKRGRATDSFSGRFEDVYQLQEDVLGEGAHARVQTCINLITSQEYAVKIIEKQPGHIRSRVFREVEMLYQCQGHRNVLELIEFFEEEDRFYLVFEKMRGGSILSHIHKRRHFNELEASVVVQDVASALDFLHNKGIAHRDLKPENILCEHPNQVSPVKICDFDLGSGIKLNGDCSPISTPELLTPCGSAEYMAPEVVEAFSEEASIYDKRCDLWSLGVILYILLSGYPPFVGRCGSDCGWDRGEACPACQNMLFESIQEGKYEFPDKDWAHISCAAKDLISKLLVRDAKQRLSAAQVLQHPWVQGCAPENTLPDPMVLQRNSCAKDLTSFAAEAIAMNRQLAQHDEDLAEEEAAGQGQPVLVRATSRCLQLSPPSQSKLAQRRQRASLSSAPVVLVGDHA

SMILES	IC50 (Full-length human MNK1; [2]) [nM]	IC50 (Full-length human MNK2; [3]) [nM]	IC50 [1] [nM]	IC50 (Full-length human MNK2) [nM]	IC50 (Full-length human MNK1) [nM]
CC1Cc2ccccc2N1c1ncnc2sc(C(=O)NCC3CCNCC3)nc12 (stereo in doubt) [Example 134, 7-[(2R)-2-methylindolin-1-yl]-N-(4-piperidyl-methyl)thiazolo[5,4-d]pyrimidine-2-carboxamide]	31.6	25.1	39.8		
CO[C@@H]1CCC[C@H](Oc2cc(F)ccc2Nc2ncnc3sc(C(=O)NCC4CCNCC4)nc23)C1 [Example 61, 7-[4-fluoro-2-[(1S,3R)-3-methoxycyclohexoxy]anilino]-N-(4-piperidylmethyl)thiazolo[5,4-d]pyrimidine-2-carboxamide]	100	126	79.4		
O=C(NCC1CCNCC1)c1nc2c(N3CC(CO)c4ccccc43)ncnc2s1 (stereo not shown) [Example 135, 7-[3-(Hydroxymethyl)indolin-1-yl]-N-(4-piperidylmethyl)thiazolo[5,4-d]pyrimidine-2-carboxamide]	10	7.94	31.6		
C[C@@H]1Cc2ccccc2N1c1ncnc2sc(C(=O)NC3CCOCC3)nc12 [Example 130, 7-[(2R)-2-methylindolin-1-yl]-N-tetrahydropyran-4-yl-thiazolo[5,4-d]pyrimidine-2-carboxamide]	50.1	39.8	50.1		
O=C(NC1CCNCC1)c1nc2c(N3CCc4ccccc43)ncnc2s1 [Example 98, 7-indolin-1-yl-N-(4-piperidyl)thiazolo[5,4-d]pyrimidine-2-carboxamide]	3.16	3.98	3.98		
CN1CCN(C(=O)c2nc3c(N4CCc5cc(F)ccc54)ncnc3s2)CC1 [Example 65, [7-(5-fluoroindolin-1-yl)thiazolo[5,4-d]pyrimidin-2-yl]-(4-methylpiperazin-1-yl)methanone]	79.4	79.4	251		
CO[C@H]1CCCC[C@@H]1Oc1cc(F)ccc1Nc1ncnc2sc(C(=O)NCCCN(C)C)nc12 [Example 21]		1260	316		
CC(C)Oc1ccc2c(c1)CCN2c1ncnc2sc(C(=O)NC3CCOCC3)nc12 [Example 116, 7-(5-Isopropoxyindolin-1-yl)-N-tetrahydropyran-4-yl-thiazolo[5,4-d]pyrimidine-2-carboxamide]		631	501		
CC(C)Oc1cc(F)ccc1Nc1ncnc2sc(C(=O)NCCN3CCNCC3)nc12 [Example 9, 7-(4-fluoro-2-isopropoxy-anilino)-N-(2-piperazin-1-ylethyl)thiazolo[5,4-d]pyrimidine-2-carboxamide]	50.1			31.6	
CN(C)CCCNC(=O)c1nc2c(N3CC(C)(C)c4ccccc43)ncnc2s1 [Example 25, N-[3-(Dimethylamino)propyl]-7-(3,3-dimethylindolin-1-yl)thiazolo[5,4-d]pyrimidine-2-carboxamide]	6.31			3.98	
O=C(NCC1CCNCC1)c1nc2c(Nc3ccc(F)cc3OC(F)(F)F)ncnc2s1 [Example 59, 7-[4-fluoro-2-(trifluoromethoxy)anilino]-N-(4-piperidylmethyl)thiazolo[5,4-d]pyrimidine-2-carboxamide]		1580	631		
O=C(NCC1CCNCC1)c1nc2c(N3CCc4cc(Cl)ccc43)ncnc2s1 [Example 168, 7-(5-Chloroindolin-1-yl)-N-(4-piperidylmethyl)thiazolo[5,4-d]pyrimidine-2-carboxamide]	3.16	3.16			
O=C(NCCCN1CCCC1)c1nc2c(N3CCc4cc(F)ccc43)ncnc2s1 [Example 68]				2	2
CN(C)CCCNC(=O)c1nc2c(N3CCc4ccccc43)ncnc2s1 [Example 27, N-[3-(Dimethylamino)propyl]-7-indolin-1-yl-thiazolo[5,4-d]pyrimidine-2-carboxamide]	10			7.94	
